The text below walks through data of patent US20250361230A1, “LATS Inhibitors and Uses Thereof” (The USA, as Represented by the Secretary, Dept. of Heath …, priority 2022, published 2025).

This assay deals with T1, AKT Kinase-NanoLuc fusion in HEK-293 cells (Homo sapiens, UniProt P31749).
T1 construct: host or cells: HEK-293
T1 sequence (P31749 whole entry, the tested form may be a part): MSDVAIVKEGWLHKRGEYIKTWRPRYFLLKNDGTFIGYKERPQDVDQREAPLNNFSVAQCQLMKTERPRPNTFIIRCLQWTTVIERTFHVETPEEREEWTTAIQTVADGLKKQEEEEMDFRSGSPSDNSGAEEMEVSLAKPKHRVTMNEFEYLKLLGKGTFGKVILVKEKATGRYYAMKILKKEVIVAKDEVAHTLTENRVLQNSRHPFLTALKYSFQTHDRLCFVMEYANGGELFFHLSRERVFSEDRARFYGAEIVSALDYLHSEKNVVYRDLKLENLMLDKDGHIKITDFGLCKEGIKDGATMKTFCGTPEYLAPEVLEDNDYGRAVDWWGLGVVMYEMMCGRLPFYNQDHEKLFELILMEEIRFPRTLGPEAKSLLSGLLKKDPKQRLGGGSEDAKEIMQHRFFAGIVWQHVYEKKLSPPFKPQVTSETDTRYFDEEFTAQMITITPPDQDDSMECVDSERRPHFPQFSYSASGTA
Put plainly: NanoBRET target engagement assay in transfected HEK-293 cells, AKT. The format is cell-based. The conditions noted are these: Table 28, NanoBRET, HEK-293 cells; read-out: AKT1 (Cellular) IC50. The text has this: The NanoBRET™ assay measures kinase engagement in real time in the context of the intact cell. The assay uses a Kinase-NanoLuc® fusion vector expressing a kinase protein to which a luciferase tag has been added, a cell-permeant fluorescent NanoBRET™ tracer, a NanoLuc® substrate, and an extracellular NanoLuc® inhibitor. Upon expression of the luciferase-tagged kinase, cells will produce a strong BRET signal only in the presence of the NanoBRET™ tracer. The extracellular NanoLuc® inhibitor ensures that the BRET signal observed emanates only from live cells. Because the BRET signal has tight distance constraints, addition of the test compound will decrease the BRET signal if the compound competes with the NanoBRET™ tracer for binding to the kinase domain. Under the appropriate tracer conditions established by the manufacturer, quantitative intracellular affinity and relative potency can then be determined using Mass Action model equations.
HEK-293 cells were purchased from ATCC. FuGENEHD Transfection Reagent, Kinase-NanoLuc® fusion plasmids, Transfection Carrier DNA, NanoBRET™ Tracers and dilution buffer, NanoBRET™ Nano-Glo Substrate, Extracellular NanoLuc® Inhibitor were obtained from Promega.
Assays were conducted following Promega assay protocol with some modifications as described further below. HEK-293 Cells were transiently transfected with Kinase-NanoLuc® Fusion Vector DNA by FuGENE HD Transfection Reagent. Test compounds were delivered into 384 well assay plate by Echo 550 (Labcyte Inc, Sunnyvale, CA). Transfected cells were harvested and mixed with NanoBRET™ Tracer Reagent and dispensed into 384 well plates and incubated at 37° C. in 5% CO2 cell culture incubator for 1 hour. The NanoBRET™ Nano-Glo Substrate plus Extracellular NanoLuc® Inhibitor Solution were added into the wells of the assay plate and incubated for 2-3 minutes at room temperature. The donor emission wavelength (460 nm) and acceptor emission wavelength (600 nm) were measured in the EnVision plate reader. The BRET Ratios were calculated. BRET Ratio=[(Acceptor sample÷Donor sample)−(Acceptor no-tracer control÷Donor no-tracer control)]. The IC50 values of compounds were calculated with Prism GraphPad program.
• 1. Transient Transfection of HEK-293 Cells NanoLuc® Fusion Vector DNA • 1). Cultivate HEK-293 cells (70-80% confluence) appropriately prior to assay. Trypsinize and collect HEK-293 cells. • 2). Prepare lipid: DNA complexes as follows: • a. Prepare a […] solution of DNA in Opti-MEM™ without serum that consists of the following ratios of carrier DNA and DNA encoding NanoLuc® fusion. 9.0 µg/mL of Transfection Carrier DNA, […] of NanoLuc® fusion vector DNA and 1 mL of Opti-MEM™ without phenol red. Mix thoroughly. • b. Add 30 μl of FuGENE HD Transfection Reagent into each milliliter of DNA mixture to form lipid: DNA complex. • c. Mix by inversion 10 times. • d. Incubate at ambient temperature for 20 minutes to allow complexes to form. • 3). In a sterile, conical tube, mix 1 part of lipid: DNA complex with 20 parts of HEK-293 cells in suspension. Mix gently by inversion 5 times. • 4). Dispense cells+lipid: DNA complex into a sterile tissue culture dish and incubate for 22-24 hours. • 2. Addition of Test Compounds (dry plate shooting): Each test compound is delivered from the compound source plate to the wells of 384-well white NBS plate by Echo 550. • 3. Preparation of Cells with NanoBRET™ Tracer Reagent • 1). Remove medium from dish with transfected HEK-293 cells via aspiration, trypsinize and allow cells to dissociate from the dish. • 2). Neutralize trypsin using medium containing serum and centrifuge at 200× g for 5 minutes to pellet the cells. Adjust the cell density to 2×10^5 cells/mL in Opti-MEM™ without phenol red. • 3). Prepare Complete 20× NanoBRET™ Tracer Reagent with Tracer Dilution Buffer. • 4). Dispense one part of Complete 20× NanoBRET™ Tracer Reagent to 20 parts of cells in the tube. Mix gently by inversion 10 times. • 5). […]
The IC50 is the concentration at which inhibition is half-maximal. In the case of `Cc1cc(-c2ccnc3[nH]cc(F)c23)cc(F)c1[C@@]1(O)[C@H](C)CN(C(=O)CN)C[C@@H]1C` [Compound 61, 2-amino-1-((3R,4s,5S)-4-(2-fluoro-4-(3-fluoro-1H-pyrrolo[2,3-b]pyridin-4-yl)-6-methylphenyl)-4-hydroxy-3,5-dimethylpiperidin-1-yl)ethan-1-one], the half-inhibitory concentration (IC50) was determined as 3.44 µM. To `C[C@@H]1CN(CC(N)=O)C[C@H](C)[C@@]1(O)c1c(F)cc(-c2ccnc3[nH]cc(F)c23)cc1F` [Compound 88, 2-((3R,4s,5S)-4-(2,6-difluoro-4-(3-fluoro-1H-pyrrolo[2,3-b]pyridin-4-yl)phenyl)-4-hydroxy-3,5-dimethylpiperidin-1-yl)acetamide] belongs more than 30 µM; to `C[C@@H]1CN(C2CCNCC2)C[C@H](C)[C@@]1(O)c1c(F)cc(-c2ccnc3[nH]cc(F)c23)cc1F` [Compound 90, (3R,4s,5S)-4-(2,6-difluoro-4-(3-fluoro-1H-pyrrolo[2,3-b]pyridin-4-yl)phenyl)-3,5-dimethyl-[1,4′-bipiperidin]-4-ol], 32.3 µM. To `OC1(c2ccc(-c3ccnc4[nH]cc(F)c34)cc2)CCNCC1` [Compound 110, 4-(4-(3-fluoro-1H-pyrrolo[2,3-b]pyridin-4-yl)phenyl)piperidin-4-ol] belongs 13.3 µM; to `OC1(c2ccc(-c3ccnc4[nH]ccc34)cc2)CCNCC1` [Compound 111, 4-(4-(1H-pyrrolo[2,3-b]pyridin-4-yl)phenyl)piperidin-4-ol], more than 50 µM. On to `Cc1cc(-c2ccnc3[nH]cc(F)c23)cc(F)c1C1(O)CC2(CN(C3COC3)C2)C1` [Compound 139, 6-(2-fluoro-4-(3-fluoro-1H-pyrrolo[2,3-b]pyridin-4-yl)-6-methylphenyl)-2-(oxetan-3-yl)-2-azaspiro[3.3]heptan-6-ol], for which the IC50 was more than 30 µM.

Regarding `O=C([C@H]1CCCN1)N1CCC(O)(c2ccc(-c3ccnc4[nH]cc(F)c34)cc2)CC1` [Compound 142], the IC50 was found to be 39.8 µM. To `Fc1c[nH]c2nccc(-c3ccc(C4CCNCC4)cc3)c12` [Compound 169, 3-fluoro-4-(4-(piperidin-4-yl)phenyl)-1H-pyrrolo[2,3-b]pyridine] belongs 13.3 µM; to `Fc1c[nH]c2nccc(-c3ccc(C4CCNCC4)c(Cl)c3)c12` [Compound 172, 4-(3-chloro-4-(piperidin-4-yl)phenyl)-3-fluoro-1H-pyrrolo[2,3-b]pyridine], more than 50 µM. The value for `Clc1c[nH]c2nccc(-c3ccc(C4CCNCC4)cc3)c12` [Compound 173, 3-chloro-4-(4-(piperidin-4-yl)phenyl)-1H-pyrrolo[2,3-b]pyridine] was 73.9 µM; that for `Cc1cc(-c2ccnc3[nH]ccc23)ccc1C1CCNCC1` [Compound 177, 4-(3-methyl-4-(piperidin-4-yl)phenyl)-1H-pyrrolo[2,3-b]pyridine] was 32 µM; that for `c1cc(-c2ccc(C3CC4CCC(C3)N4)cc2)c2cc[nH]c2n1` (stereo not shown) [Compound 184, 4-(4-(8-azabicyclo[3.2.1]octan-3-yl)phenyl)-1H-pyrrolo[2,3-b]pyridine] was 27.4 µM.

For the compound `CC1CC(c2ccc(-c3ccnc4[nH]ccc34)cc2)CC(C)N1` (stereo not shown) [Compound 187, 4-(4-(2,6-dimethylpiperidin-4-yl)phenyl)-1H-pyrrolo[2,3-b]pyridine], the IC50 was more than 50 µM. The value for `CC1(c2ccc(-c3ccnc4[nH]ccc34)cc2)CCNCC1` [Compound 201, 4-(4-(4-methylpiperidin-4-yl)phenyl)-1H-pyrrolo[2,3-b]pyridine] was 7.51 µM; that for `Cc1cc(-c2ccnc3[nH]cc(F)c23)ccc1CN` [Compound 211, (4-(3-fluoro-1H-pyrrolo[2,3-b]pyridin-4-yl)-2-methylphenyl) methanamine] was 22.6 µM; that for `NCc1ccc(-c2ccnc3[nH]cc(-c4ccccc4)c23)cc1-c1ccccc1` [Compound 219, (5-(3-phenyl-1H-pyrrolo[2,3-b]pyridin-4-yl)-[1,1′-biphenyl]-2-yl)methanamine] was more than 50 µM. The value for `COC(=O)c1c[nH]c2nccc(-c3ccc(CN)cc3)c12` [Compound 223, methyl 4-(4-(aminomethyl)phenyl)-1H-pyrrolo[2,3-b]pyridine-3-carboxylate] was more than 50 µM; that for `Cc1cccc(-c2c[nH]c3nccc(-c4ccc(CN)cc4)c23)c1` [Compound 230, (4-(3-(m-tolyl)-1H-pyrrolo[2,3-b]pyridin-4-yl)phenyl) methanamine] was 0.752 µM; that for `CC(C)(N)c1ccc(-c2ccnc3[nH]cc(F)c23)cc1` [Compound 238, 2-(4-(3-fluoro-1H-pyrrolo[2,3-b]pyridin-4-yl)phenyl)propan-2-amine] was 9.53 µM.

Turning to `NCc1ccc(-c2ccnc3[nH]cc(-c4cccnc4)c23)cc1` [Compound 245, (4-(3-(pyridin-3-yl)-1H-pyrrolo[2,3-b]pyridin-4-yl)phenyl) methanamine], the IC50 was determined as 3.45 µM. On to `NCc1ccc(-c2ccnc3[nH]cc(-c4ccccc4)c23)cc1` [Compound 253, (4-(3-phenyl-1H-pyrrolo[2,3-b]pyridin-4-yl)phenyl) methanamine], for which the IC50 amounted to 0.338 µM. To `Cc1cc(-c2ccnc3[nH]cc(Cl)c23)ccc1CN` [Compound 254, (4-(3-chloro-1H-pyrrolo[2,3-b]pyridin-4-yl)-2-methylphenyl) methanamine] belongs 3.91 µM; to `Cc1cc(-c2ccnc3[nH]ccc23)ccc1CN` [Compound 266, (2-methyl-4-(1H-pyrrolo[2,3-b]pyridin-4-yl)phenyl) methanamine], more than 50 µM.

Consider `c1cc(-c2ccc3c(c2)CCNC3)c2cc[nH]c2n1` [Compound 267, 6-(1H-pyrrolo[2,3-b]pyridin-4-yl)-1,2,3,4-tetrahydroiso-quinoline], for which the half-maximal inhibitory concentration (IC50) came out at 17.3 µM.

Regarding `c1cc(-c2ccc(C3CCCCN3)cc2)c2cc[nH]c2n1` (stereo not shown) [Compound 271, 4-(4-(piperidin-2-yl)phenyl)-1H-pyrrolo[2,3-b]pyridine], the concentration for half-maximal inhibition (IC50) was found to be 14.5 µM. The value for `NCc1ccc(-c2ccnc3[nH]cc(F)c23)cc1` [Compound 275, (4-(3-fluoro-1H-pyrrolo[2,3-b]pyridin-4-yl)phenyl) methanamine] was 2.06 µM. To `NCc1ccc(-c2ccnc3[nH]cc(Cl)c23)cc1` [Compound 276, (4-(3-chloro-1H-pyrrolo[2,3-b]pyridin-4-yl)phenyl) methanamine] belongs 4.14 µM.

As to `NCc1ccc(-c2ccnc3[nH]ccc23)cc1C(F)(F)F` [Compound 284, (4-(1H-pyrrolo[2,3-b]pyridin-4-yl)-2-(trifluoromethyl)phenyl) methanamine], the IC50 was more than 50 µM. To `NCc1ccc(-c2ccnc3[nH]ccc23)cc1` [Compound 287, (4-(1H-pyrrolo[2,3-b]pyridin-4-yl)phenyl) methanamine] belongs more than 50 µM. For `Cc1cc(-c2ccnc3[nH]cc(F)c23)cc(F)c1[C@@]1(O)[C@H](C)CN(C)C[C@@H]1C` [Compound 304, (3S,4s,5R)-4-(2-fluoro-4-(3-fluoro-1H-pyrrolo[2,3-b]pyridin-4-yl)-6-methylphenyl)-1,3,5-trimethylpiperidin-4-ol], the IC50 was found to be 26 µM. As to `Cc1cc(-c2ccnc3[nH]cc(F)c23)cc(F)c1[C@@]1(O)[C@H](C)CN(C(C)C)C[C@@H]1C` [Compound 305, (3S,4s,5R)-4-(2-fluoro-4-(3-fluoro-1H-pyrrolo[2,3-b]pyridin-4-yl)-6-methylphenyl)-1-isopropyl-3,5-dimethylpiperidin-4-ol], the IC50 was found to be 29.4 µM.
